# Reference: patent US11517622B2, “Combination of regorafenib and PD-1/PD-L1(2) inhibitors for treating cancer” (BAYER AKTIENGESELLSCHAFT, priority 2017, dated 2022)
# What was measured:
# MC38 syngeneic tumors = test: Antitumor activity in syngenic murine MC38 CRC model (subcutaneous tumors); assay type: in vivo, mice
# Method: The combinatorial activity of regorafenib and anti-mouse PD-1 antibody (RMP1-14, Peng et al., Cancer Res., (2012) 72(20), 5209-5218) was investigated in a syngenic murine MC38 CRC model
# MC38 syngeneic tumors were grown subcutaneously in mice and treated with regorafenib and/or anti-mouse PD-1 antibody (RMP1-14) according to the following regimens: […]
# Control animals were treated concomitantly with the regorafenib vehicle (PluronicF68/PEG400/Propylenglycol (15/42,5/42,5+20% aqua)) and a non-binding isotype control antibody (rat IgG2a, clone 2A3). Tumor growth was monitored by caliper measurement and the tumor area was calculated using the formula a×b where a and b are the long and short diameters of the tumor, respectively. Tumor weights were measured after completion of the study. Tumor vs control (T/C) was calculated using vehicle treated animals as reference.
# CT26 syngeneic tumors = test: Liver metastases in syngenic murine CT26 CRC model (orthotopic tumors); assay type: in vivo, mice
# Method: The combinatorial activity of regorafenib and anti-mouse PD-1 antibody (RMP1-14, Peng et al., Cancer Res., (2012) 72(20), 5209-5218) was investigated in a syngenic murine CT26 CRC model
# CT26 syngeneic tumors were grown orthotopically in mice (Abou-Elkacem et al., Mol Cancer Ther. 2013 July; 12(7):1322-31) and treated with regorafenib and/or anti-mouse PD-1 antibody (RMP1-14) according to the following regimens:
# a) regorafenib alone at a dose of 30 mg/kg per day once daily for 10 days as a PluronicF68/PEG400/Propylenglycol/water (12/34/34/20) po (per oral) formulation using the formulation vehicle alone as control or in a combination with an unspecific control antibody given intraperitoneally (i.p.) at a dose of 20 mg/kg in PBS every third day. b) anti-mouse PD-1 antibody (RMP1-14) alone dosed at 20 mg/kg every third day for four times as a PBS i.p. formulation and an unspecific antibody was used as control c) in combination, regorafenib at a dose of 20 mg/kg per day once daily for 10 days as a PluronicF68/PEG400/Propylenglycol/water (/12/34/34/20) p.o. formulation and anti-mouse PD-1 antibody (RMP1-14) dosed at 20 mg/kg every third day for four times as a PBS i.p. formulation,
# Mice were sacrificed at the end of treatment or at the end of the observation period and livers were screened macroscopically for metastases on their surface. The number of mice with liver metastases was then related to the total number of mice in the respective study arm.
# [1] = d 14 p.i., after treatment, single agent
# [2] = d 25 p.i., observation period after treatment stop at d 14, regorafenib plus control antibody
smiles,measurement,setting,value
"CNC(=O)c1cc(Oc2ccc(NC(=O)Nc3ccc(Cl)c(C(F)(F)F)c3)c(F)c2)ccn1 [Regorafenib, 4{4-[3-(4-chloro-3-trifluoromethylphenyl)-ureido]-3-fluorophenoxy}-pyridine-2-carboxylic acid methylamide]",T/C (area),"MC38 syngeneic tumors; regimen a): regorafenib 3 mg/kg po once daily for 15 days plus isotype control 10 mg/kg ip, tumor area vs vehicle",0.68
same,T/C (weight),"MC38 syngeneic tumors; regimen a): regorafenib 3 mg/kg po once daily for 15 days plus isotype control 10 mg/kg ip, tumor weight at study end vs vehicle",0.64
same,growth of MC38 tumors vs control,MC38 syngeneic tumors; single agents,inhibited the growth of MC38 tumors vs control
same,# of animals with mets,CT26 syngeneic tumors; [1],0
same,% animals wirth mets,CT26 syngeneic tumors; [1],0%
same,# of animals with mets,CT26 syngeneic tumors; [2],8
same,% animals wirth mets,CT26 syngeneic tumors; [2],100%
